Laboratory results reported in ChEMBL document CHEMBL1201862, “PubChem BioAssay data set” (2004).
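All cell lines were grown in 96-well plates and treated with compound for 48 hours. GI50 is the concentration that inhibits growth by half.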 Activity calls are given as the source filed them. Rule as the data show it: active = GI50 up to about 1.1 µM and inactive = higher.

Columns and labels:
Test in all cases: NCI tumour cell line growth inhibition, 48 h
HOP-18 = system: HOP-18
DMS-273 = system: DMS-273
DLD-1 = system: DLD-1
SNB-78 = system: SNB-78
M19-MEL = system: M19-MEL
RXF 631 = system: RXF 631
BT-549 = system: BT-549
DMS-114 = system: DMS-114
XF498 = system: XF498

Cc1cc(C(C)C)cc(=O)c(O)c1
GI50 (HOP-18): > 100 µM (inactive) | GI50 (DMS-273): > 100 µM (inactive) | GI50 (DLD-1): > 100 µM (inactive) | GI50 (SNB-78): > 100 µM (inactive) | GI50 (M19-MEL): > 100 µM (inactive) | GI50 (RXF 631): > 100 µM (inactive)

CC(C)=Cc1cc(CCC/C(C)=C/Cc2c(O)cc(C)c(C(=O)O)c2O)co1
GI50 (BT-549): > 100 µM (inactive)

CCCCn1c(N)c(-c2nc3ccccc3o2)sc1=S
GI50 (BT-549): 26.3 µM (inactive)

CCN1C(=O)C(N=[N+]=[N-])(c2ccccc2)C(=O)c2ccccc21 (stereo not drawn)
GI50 (HOP-18): > 100 µM (inactive) | GI50 (DMS-273): > 100 µM (inactive) | GI50 (DLD-1): > 100 µM (inactive) | GI50 (DMS-114): 41.7 µM (inactive) | GI50 (SNB-78): 98.2 µM (inactive) | GI50 (M19-MEL): 43.1 µM (inactive) | GI50 (XF498): 0.946 µM (active)

NNC(=O)Nc1nc2ccc(NN)cc2[nH]1
GI50 (BT-549): 24 µM (inactive)

C=CCN1C2Cc3cc(OC)c(OC)cc3C1Cc1cc(OC)c(OC)cc12
GI50 (DLD-1): > 100 µM (inactive) | GI50 (SNB-78): > 100 µM (inactive) | GI50 (XF498): > 100 µM (inactive)

NCCN(CCN)/[N+]([O-])=N/O
GI50 (BT-549): > 100 µM (inactive)

CC(=O)NC1C(OCc2ccccc2)OC(CO)C(O)C1OCC(=O)N1CCCC1C(=O)N[C@@H](CCC(=O)NCCCCNc1c2ccccc2nc2cccc([N+](=O)[O-])c12)C(N)=O (stereo partly drawn)
GI50 (BT-549): 17.9 µM (inactive)

C[N+](C)(Cc1ccc(NC(=O)CCCC(=O)ON2C(=O)CCC2=O)cc1)c1ccccc1
GI50 (HOP-18): < 0.01 µM (active) | GI50 (DMS-273): < 0.01 µM (active) | GI50 (DLD-1): < 0.01 µM (active) | GI50 (DMS-114): > 1 µM (active) | GI50 (M19-MEL): < 0.01 µM (active) | GI50 (XF498): > 1 µM (active)

COc1ccc(CN2C(=O)C(Cc3cc(OC)c(OC)c(C)c3OC)N(C(=O)OC(C)C)C(=O)/C2=C/c2cc(OC)c(OC)c(C)c2OC)cc1 (stereo not drawn)
GI50 (HOP-18): 16.3 µM (inactive) | GI50 (DMS-273): 23.6 µM (inactive) | GI50 (DLD-1): > 100 µM (inactive) | GI50 (DMS-114): 24.9 µM (inactive) | GI50 (M19-MEL): > 100 µM (inactive) | GI50 (RXF 631): > 100 µM (inactive)

O=C(NO)C(=O)Nc1cc(Cl)ccc1Cl
GI50 (HOP-18): > 100 µM (inactive) | GI50 (DMS-273): 42.7 µM (inactive) | GI50 (DLD-1): > 100 µM (inactive) | GI50 (DMS-114): 69.3 µM (inactive) | GI50 (SNB-78): > 100 µM (inactive) | GI50 (M19-MEL): > 100 µM (inactive) | GI50 (RXF 631): 62.7 µM (inactive)

COC(=O)C1CCC(=S)N1C(=O)c1ccccc1 (stereo not drawn)
GI50 (BT-549): > 100 µM (inactive)

Cc1cc(C)n(-c2nc(-n3nc(C)cc3C)nc(-n3nc(C)cc3C)n2)n1
GI50 (BT-549): > 100 µM (inactive)

CC(=O)/C(=N\O)C(=O)NCCc1ccccc1
GI50 (HOP-18): > 100 µM (inactive) | GI50 (DMS-273): 55.1 µM (inactive) | GI50 (DLD-1): 60.4 µM (inactive) | GI50 (DMS-114): 43.7 µM (inactive) | GI50 (SNB-78): > 100 µM (inactive) | GI50 (M19-MEL): > 100 µM (inactive) | GI50 (XF498): 31.6 µM (inactive)

CC(C)=CCN1c2ccccc2[C@@]2(CC=C(C)C)CCN(C)[C@@H]12 [(+)-DEBROMOFLUSTRAMINE B]
GI50 (BT-549): 21.9 µM (inactive)

CSc1ccc(/C=C2\N=C(c3ccccc3)N(/N=C/c3cc4cc(C)ccc4nc3Cl)C2=O)cc1
GI50 (BT-549): 22.8 µM (inactive)

Cn1c2ccccc2c2c3c(c4c5ccccc5n(C)c4c21)C(=O)N(Cc1ccccc1)C3=O
GI50 (BT-549): > 100 µM (inactive)

Cc1cc(NC(=O)NC(=O)c2ccccc2NC(=O)CN(C)C)ccc1Oc1ncc(Br)cn1
GI50 (DMS-273): 3.74 µM (inactive) | GI50 (DLD-1): 8.07 µM (inactive) | GI50 (DMS-114): 3.07 µM (inactive) | GI50 (BT-549): > 100 µM (inactive) | GI50 (SNB-78): 19.2 µM (inactive) | GI50 (M19-MEL): 36.8 µM (inactive) | GI50 (XF498): 19.7 µM (inactive)

COC(=O)C1OC(O[C@H]2CC[C@]3(C)[C@H]4CC=C5[C@@H]6CC(C)(C)CC[C@]6(C(=O)OC6OCC(O)C(O)C6OC6OC(C)C(OC7OCC(O)C(O)C7O)C(OC7OCC(O)(CO)C7O)C6O)[C@H](O)C[C@@]5(C)[C@]4(C)CC[C@H]3C2(C)C)C(O)C(O)C1O (stereo partly drawn)
GI50 (BT-549): 2.64 µM (inactive)

Cc1ccccc1NC(=O)Cc1csc2[n+]1C(=O)/C(=C/c1ccc([N+](=O)[O-])cc1)S2
GI50 (BT-549): 13 µM (inactive)

O=C(N/N=C/c1ccc(Cl)cc1)c1c(Cl)c(Cl)c(Cl)c(Cl)c1-c1nc2ccccc2[nH]1
GI50 (BT-549): > 100 µM (inactive)

Cn1cnc([N+](=O)[O-])c1Sc1nnc(-c2ccc(Cl)cc2)n1C
GI50 (HOP-18): 5.25 µM (inactive) | GI50 (DMS-273): 16.4 µM (inactive) | GI50 (DLD-1): 11 µM (inactive) | GI50 (DMS-114): 15.8 µM (inactive) | GI50 (SNB-78): 13.2 µM (inactive) | GI50 (M19-MEL): 14.1 µM (inactive) | GI50 (RXF 631): 15.6 µM (inactive)

O=C1CCC(=O)N1n1c(Cc2ccccc2)n[nH]c1=O
GI50 (BT-549): > 100 µM (inactive)

O=C(O)c1ccc(OCc2ccccc2)c(Cl)c1
GI50 (BT-549): > 100 µM (inactive)

CC(=O)OCC1OC(Sc2nc(-c3ccc(C)cc3)c(C#N)c(=O)n2C2OC(COC(C)=O)C(OC(C)=O)C(OC(C)=O)C2OC(C)=O)C(OC(C)=O)C(OC(C)=O)C1OC(C)=O (stereo not drawn)
GI50 (BT-549): > 100 µM (inactive)

CCCCCCCCCCC(C(=O)O)C1(C(=O)O)CCC(=O)O1 (stereo not drawn)
GI50 (BT-549): > 100 µM (inactive)

O=Cc1c(C(=O)O)[nH]c(=O)[nH]c1=O
GI50 (BT-549): > 100 µM (inactive)

CCN(CC)C1=Nc2ccccc2-n2ccnc2C1
GI50 (BT-549): > 100 µM (inactive)

CC1(C)CC2(C)CC1CC2(O)c1ccccc1 (stereo not drawn)
GI50 (BT-549): > 100 µM (inactive)

COC1=CC(=O)c2c(c(-c3csc(C)n3)cn2C)C1=O
GI50 (BT-549): 22.8 µM (inactive)

O=[N+]([O-])c1ccc(N2N=C(c3c(O)ccc4ccccc34)CC2c2ccc(Cl)cc2)c([N+](=O)[O-])c1 (stereo not drawn)
GI50 (BT-549): 32.5 µM (inactive)
